Measured values from publication PMC12381739, “Druglike Molecular Degraders of the Oncogenic RNA-Binding Protein HuR” (JACS Au, 2025).

Columns and labels:
[1] = tested on: MCF-7 and MDA-MB-231 cells; assay: Cell counting-proliferation assay; assay type: cell-based, human; conditions: compared to Binders 1 and 2, at 24 and 48 h
Experimental: MCF-7 and MDA-MB-231 cells were seeded in 96-well plates to 80% confluency and treated with synthesized compounds at eight concentrations (0.1 nM–100 μM) for 24 and 48 h. Cell proliferation was assessed using the Resazurin Assay Kit (Abcam, ab228554), where each sample was incubated with 1× WST-8/CCK8 solution for 1 h. After incubation, fluorescence was measured by absorbance at 460 nm using the Synergy H1 Hybrid Multi-Mode Microplate Reader (Biotek, Agilent). Cell proliferation was calculated as the percent decrease in fluorescence of treated cells compared to untreated controls. All experiments were performed in triplicate.

[2] = target: HuR (Homo sapiens, UniProt Q15717); assay: HuR western blot, dose-dependent treatment (Figure S7, cell line not stated); assay type: cell-based; design: endogenous in cells; host or cells: MCF-7 or MDA-MB-231 (not given); conditions: 48 h, normalized to vinculin
HuR, sequence (Q15717 whole entry): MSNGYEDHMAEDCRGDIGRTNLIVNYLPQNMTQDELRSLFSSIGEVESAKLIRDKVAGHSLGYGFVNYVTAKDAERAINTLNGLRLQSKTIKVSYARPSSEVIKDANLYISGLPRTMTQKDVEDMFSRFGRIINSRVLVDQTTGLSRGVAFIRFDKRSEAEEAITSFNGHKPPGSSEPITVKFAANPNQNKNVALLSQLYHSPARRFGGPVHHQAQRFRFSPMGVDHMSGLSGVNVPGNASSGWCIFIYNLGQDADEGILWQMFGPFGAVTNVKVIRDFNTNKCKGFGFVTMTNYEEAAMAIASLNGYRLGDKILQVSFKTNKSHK
Experimental: MDA-MB-231 and MCF-7 cells were seeded in 6-well plates at approximately 60% confluency in complete growth medium and treated with synthesized compounds at the indicated concentrations or with vehicle for 24 h. Total protein was extracted using RIPA cell lysis buffer (BioPrep) containing a protease inhibitor, and protein concentration was measured using the BCA protein assay (Sigma-Aldrich) according to the manufacturer’s protocol. Approximately 30 μg of total protein were resolved on a 12% SDS-acrylamide gel and transferred to a PVDF membrane (Immobilon FL transfer membrane; Merck). The membrane was washed with 1× Tris-buffered saline (TBS) containing 0.1% (v/v) Tween-20 (TBST; Tris-base, pH 7.6, NaCl, and Tween-20) and blocked in 1× TBST containing 5% (w/v) BSA for 2 h at room temperature. The membrane was then incubated overnight at 4 °C with primary antibodies: a 1:1000 dilution of rabbit anti-ELAVL1/HuR (Cell Signaling Technology, #12582), a 1:1000 dilution of mouse anti-Bcl2 (Cell Signaling Technology, #15071), or a 1:10,000 dilution of rabbit anti-Vinculin (Cell Signaling Technology, #13901) in 1× TBST containing 5% (w/v) BSA. […] The fold change in the expression of the target proteins (HuR or Bcl2) was calculated by normalizing the band intensity to the Vinculin band intensity using ImageJ. […]

HuR protein level relative to UT ([2]; 0.01 nM): 113%
HuR protein level relative to UT ([2]; 0.1 nM): 108%
SMILES: O=C1CCC(N2C(=O)c3cccc(NCc4cn(-c5ccc6sc(C(=O)O)cc6c5)nn4)c3C2=O)C(=O)N1 (stereo not drawn) [PRO-HuR3]
cell proliferation [1]: significant decrease in cell proliferation
